Paper PMC10892375, “Determination of the Cannabinoid CB1 Receptor’s Positive Allosteric Modulator Binding Site through Mutagenesis Studies” (Pharmaceuticals, 2024)
“Also recorded” adds a separate entry of the source.

Key:
Format in all cases: cell-based
hCB1 mutant S173A^2.60 = molecular target: T1, hCB1 mutant S173A^2.60 (Homo sapiens, UniProt P21554, S173A); assay: pIRES G protein dissociation BRET assay, S173A mutant; conditions: 10 μM ligand alone
T1 construct: expressed in transfected cells; host or cells: HEK293
T1 sequence (P21554 whole entry S173A): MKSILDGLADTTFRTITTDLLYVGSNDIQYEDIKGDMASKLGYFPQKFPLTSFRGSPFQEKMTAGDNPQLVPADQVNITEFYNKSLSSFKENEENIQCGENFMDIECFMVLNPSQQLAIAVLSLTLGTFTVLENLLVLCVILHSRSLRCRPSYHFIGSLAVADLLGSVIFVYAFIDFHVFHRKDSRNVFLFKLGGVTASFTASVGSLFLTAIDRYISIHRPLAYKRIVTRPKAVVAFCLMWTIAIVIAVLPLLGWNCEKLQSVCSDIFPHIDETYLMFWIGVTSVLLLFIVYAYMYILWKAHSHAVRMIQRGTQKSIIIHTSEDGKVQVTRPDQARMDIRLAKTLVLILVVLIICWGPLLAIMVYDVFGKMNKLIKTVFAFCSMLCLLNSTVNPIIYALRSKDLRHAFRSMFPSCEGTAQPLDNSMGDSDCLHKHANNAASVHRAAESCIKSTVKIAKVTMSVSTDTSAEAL
Method: (§1) Mutagenesis studies using the pIRES G protein dissociation assay were performed using human embryonic kidney 293 (HEK293) wild-type cells transiently transfected with pplss-3HA-hCB1 [31] or modified receptor. All cells were cultured in Dulbecco’s Modified Eagle’s Medium (DMEM) supplemented with 10% fetal bovine serum (FBS), grown in […] vented-cap flasks, and maintained in a 37° C incubator at 5% CO2.
(§2) Mutants of pplss-3HA-hCB1 (WT, pEF-V4-HisA (pEF4a) construct) were generated using a modified QuikChange® (Stratagene, San Diego, CA, USA) site-directed mutagenesis approach using KAPA HiFi Hotstart Polymerase (KAPA Biosystems, Roche, Basel, Switzerland). Briefly, single-stranded primers used to modify one or two base pairs within the target amino acid using PCR were purchased from Integrated DNA Technologies (IDT, Coralville, IA, USA). All pplss-hCB1 mutants were generated using the pplss-3HA-hCB1 pEF4a as parental DNA. PCR products were generated using recommended cycling conditions and treated with Dpn1 (New England Biolabs, Ipswich, MA, USA) overnight at 37° C to digest methylated parental DNA. PCR products were electrophoresed and run on an agarose gel (1% (w.v^−1) agarose, HydraGene, Piscataway, NJ, USA) containing 0.25 μg/mL ethidium bromide (Sigma-Aldrich, St. Louis, MO, USA). Gels were run in 40 mM TRIS-acetate buffer containing […] (pH 8.3) at 100 V for 30 min, maximum current and included a 1kb+ DNA ladder (Invitrogen, Thermo Fisher Scientific, Carlsbad, CA, USA) for reference. Gels were imaged using an UVTech Alliance Q9 Mini transilluminator (UVTech Alliance, Cambridge, UK). Digested products were then used to transform NEB 5α competent E. coli cells in accordance with manufacturer’s instructions. Briefly, transformed PCR products were grown overnight on 8.5 mL Luria Broth agar plates (containing 100 μg/mL ampicillin) at 37° C. Single bacterial colonies were picked and inoculated in Luria Broth (containing 100 μg/mL ampicillin) and grown overnight in a shaking incubator at 37° C. Plasmids were then harvested and purified using a Qiagen miniprep kit (Qiagen, Hilden, Germany) and validated using sequencing (Genetics Analysis Service, University of Otago, Dunedin, New Zealand).
(§3) Dissociation of the G protein heterotrimer, specifically Gαi1, Gβ1, and Gγ2, was investigated using a bioluminescence resonance energy transfer (BRET) assay with the pIRES biosensor first described by and adapted by.
(§4) Briefly, 3 × 10^6 WT HEK293 cells were seeded into 10 cm culture dishes (Corning, Corning, NY, USA; one dish for the control receptor and one for each modified receptor) and incubated at 37 °C for 24 h to gain 50–60% confluency. Culture medium was then replaced and transfection mixtures containing 3 μg pIRES vector and 1 μg receptor (either pplss-hCB1 or modified receptor) were prepared (4 μg total DNA). Plasmids were initially diluted in sterile Milli-Q water before being diluted in OptiMEM reduced serum medium (Thermo Fisher Scientific, Waltham, MA, USA) and combined with […] polyethylenimine (PEI)-max (1:9 DNA:PEI-max ratio) and incubated at room temperature for 20 min. Transfection mixtures were then added to cells via dropwise addition, and cells were incubated at 37 °C for 24 h. Transfected cells were lifted and plated at 50,000 cells/well into poly-d-lysine (PDL; Sigma-Aldrich) coated white 96-well CulturPlates (PerkinElmer, Waltham, MA, USA) and incubated for a further 24 h at 37 °C.
(§5) To assay, the culture medium was aspirated and cells were washed with phosphate buffered saline (PBS) and replaced with BRET assay medium (phenol red free DMEM containing 25 mM HEPES and supplemented with 1 mg/mL bovine serum albumin; BSA, MP Biomedicals, Auckland, New Zealand) for 30 min prior to drug addition (serum starve). Drugs were prepared at 10 × concentration in BRET assay medium, combined in a polypropylene V-bottom plate, and incubated at 37° C prior to drug stimulation.

hCB1 mutant I169A^2.56 = molecular target: T2, hCB1 mutant I169A^2.56 (Homo sapiens, UniProt P21554, I169A); assay: pIRES G protein dissociation BRET assay, I169A mutant; conditions: for G protein dissociation, AUC of 10 μM compound (maximal response): 10 μM ligand alone; for Allosteric agonism: G protein dissociation in the absence of an orthosteric ligand: 10 μM
T2 construct: expressed in transfected cells; host or cells: HEK293
T2 sequence (P21554 whole entry I169A): as the sequence (P21554 whole entry S173A) above, with I169A, A173S counted along it
Method: as §1, §2, §3, §4, §5

hCB1 mutant I245A^4.54 = molecular target: T3, hCB1 mutant I245A^4.54 (Homo sapiens, UniProt P21554, I245A); assay: pIRES G protein dissociation BRET assay, I245A mutant; conditions: 10 μM ligand alone
T3 construct: expressed in transfected cells; host or cells: HEK293
T3 sequence (P21554 whole entry I245A): as the sequence (P21554 whole entry S173A) above, with A173S, I245A counted along it
Method: as §1, §2, §3, §4, §5

hCB1 mutant R148A^12.51 = molecular target: T4, hCB1 mutant R148A^12.51 (Homo sapiens, UniProt P21554, R148A); assay: pIRES G protein dissociation BRET assay, R148A mutant; conditions: for Increase in the potency of CP55940-induced G protein dissociation: 10 μM allosteric ligand; for G protein dissociation, AUC of 10 μM compound (maximal response): 10 μM ligand alone
T4 construct: expressed in transfected cells; host or cells: HEK293
T4 sequence (P21554 whole entry R148A): as the sequence (P21554 whole entry S173A) above, with R148A, A173S counted along it
Method: as §1, §2, §3, §4, §5

hCB1 mutant H154A^2.41 = molecular target: T5, hCB1 mutant H154A^2.41 (Homo sapiens, UniProt P21554, H154A); assay: pIRES G protein dissociation BRET assay, H154A mutant; conditions: 10 μM ligand alone
T5 construct: expressed in transfected cells; host or cells: HEK293
T5 sequence (P21554 whole entry H154A): as the sequence (P21554 whole entry S173A) above, with H154A, A173S counted along it
Method: as §1, §2, §3, §4, §5

hCB1 mutant K232A^4.41 = molecular target: T6, hCB1 mutant K232A^4.41 (Homo sapiens, UniProt P21554, K232A); assay: pIRES G protein dissociation BRET assay, K232A mutant; conditions: 10 μM ligand alone
T6 construct: expressed in transfected cells; host or cells: HEK293
T6 sequence (P21554 whole entry K232A): as the sequence (P21554 whole entry S173A) above, with A173S, K232A counted along it
Method: as §1, §2, §3, §4, §5

hCB1 mutant L209A^3.45 = molecular target: T7, hCB1 mutant L209A^3.45 (Homo sapiens, UniProt P21554, L209A); assay: pIRES G protein dissociation BRET assay, L209A mutant; conditions: 10 μM ligand alone
T7 construct: expressed in transfected cells; host or cells: HEK293
T7 sequence (P21554 whole entry L209A): as the sequence (P21554 whole entry S173A) above, with A173S, L209A counted along it
Method: as §1, §2, §3, §4
To assay, the culture medium was aspirated and cells were washed with phosphate buffered saline (PBS) and replaced with BRET assay medium (phenol red free DMEM containing 25 mM HEPES and supplemented with 1 mg/mL bovine serum albumin; BSA, MP Biomedicals, Auckland, New Zealand) for 30 min prior to drug addition (serum starve). Drugs were prepared at 10 × concentration in BRET assay medium, combined in a polypropylene V-bottom plate, and incubated at 37° C prior to drug stimulation. […]

hCB1 mutant F289A^5.53 = molecular target: T8, hCB1 mutant F289A^5.53 (Homo sapiens, UniProt P21554, F289A); assay: pIRES G protein dissociation BRET assay, F289A mutant; conditions: 10 μM ligand alone
T8 construct: expressed in transfected cells; host or cells: HEK293
T8 sequence (P21554 whole entry F289A): as the sequence (P21554 whole entry S173A) above, with A173S, F289A counted along it
Method: as §1, §2, §3, §4, §5

hCB1 mutant R220A^3.56 = molecular target: T9, hCB1 mutant R220A^3.56 (Homo sapiens, UniProt P21554, R220A); assay: pIRES G protein dissociation BRET assay, R220A mutant; conditions: 10 μM ligand alone
T9 construct: expressed in transfected cells; host or cells: HEK293
T9 sequence (P21554 whole entry R220A): as the sequence (P21554 whole entry S173A) above, with A173S, R220A counted along it
Method: as §1, §2, §3, §4, §5

hCB1 mutant L404A^8.50 = molecular target: T10, hCB1 mutant L404A^8.50 (Homo sapiens, UniProt P21554, L404A); assay: pIRES G protein dissociation BRET assay, L404A mutant; conditions: 10 μM ligand alone
T10 construct: expressed in transfected cells; host or cells: HEK293
T10 sequence (P21554 whole entry L404A): as the sequence (P21554 whole entry S173A) above, with A173S, L404A counted along it
Method: as §1, §2, §3, §4, §5

hCB1 mutant F408A^8.54 = molecular target: T11, hCB1 mutant F408A^8.54 (Homo sapiens, UniProt P21554, F408A); assay: pIRES G protein dissociation BRET assay, F408A mutant; conditions: 10 μM ligand alone
T11 construct: expressed in transfected cells; host or cells: HEK293
T11 sequence (P21554 whole entry F408A): as the sequence (P21554 whole entry S173A) above, with A173S, F408A counted along it
Method: as §1, §2, §3, §4, §5

| Structure (SMILES) | G protein dissociation, AUC of 10 μM compound (maximal response) (hCB1 mutant S173A^2.60) | G protein dissociation, AUC of 10 μM compound (maximal response) (hCB1 mutant I169A^2.56) | Allosteric agonism: G protein dissociation in the absence of an orthosteric ligand (hCB1 mutant I169A^2.56; result in words) | G protein dissociation, AUC of 10 μM compound (maximal response) (hCB1 mutant I245A^4.54) | Increase in the potency of CP55940-induced G protein dissociation (hCB1 mutant R148A^12.51) | G protein dissociation, AUC of 10 μM compound (maximal response) (hCB1 mutant R148A^12.51) | G protein dissociation, AUC of 10 μM compound (maximal response) (hCB1 mutant H154A^2.41) | G protein dissociation, AUC of 10 μM compound (maximal response) (hCB1 mutant K232A^4.41) | G protein dissociation, AUC of 10 μM compound (maximal response) (hCB1 mutant L209A^3.45) | G protein dissociation, AUC of 10 μM compound (maximal response) (hCB1 mutant F289A^5.53) | G protein dissociation, AUC of 10 μM compound (maximal response) (hCB1 mutant R220A^3.56) | G protein dissociation, AUC of 10 μM compound (maximal response) (hCB1 mutant L404A^8.50) | G protein dissociation, AUC of 10 μM compound (maximal response) (hCB1 mutant F408A^8.54) | Allosteric modulation of CP55940 (PAM activity) (hCB1 mutant I169A^2.56; 10 μM allosteric ligand, result in words) |
| --- | --- | --- | --- | --- | --- | --- | --- | --- | --- | --- | --- | --- | --- | --- |
| O=[N+]([O-])C[C@H](c1ccccc1)c1c(-c2ccccc2)[nH]c2ccccc12 [GAT228] | −105.5 ± 7.6 | 30.0 ± 5.9 | abolished; also recorded: inhibited constitutive G protein dissociation | −90.3 ± 8.5 | less than 0.5 log units | −102.7 ± 11.8 | −101.6 ± 6.9 | −94.0 ± 10.5 | −19.0 ± 3.3 | −97.4 ± 7.2 | −85.2 ± 13.6 | −63.2 ± 5.6 | −90.3 ± 8.3 |  |
| O=[N+]([O-])C[C@@H](c1ccccc1)c1c(-c2ccccc2)[nH]c2ccccc12 [GAT229] | −137.3 ± 4.8 | 54.8 ± 7.5 | abolished; also recorded: inhibited constitutive G protein dissociation | −121.6 ± 8.0 | less than 0.5 log units | −148.5 ± 7.7 | −154.6 ± 7.8 | −134.5 ± 7.9 | −25.1 ± 3.5 | −123.6 ± 5.9 | −102.9 ± 9.9 | −88.9 ± 6.2 | −110.0 ± 8.6 | neither allosteric ligand acted as a PAM |
